Reference: paper PMC12818745 (ACS Chemical Neuroscience, 2025)

Key:
[1] = in vitro; conditions: for Papp at 2.5 h: PAMPA, pH 7.4; for Prediction (penetration into the CNS): class from PAMPA-BBB P e
Method: To assess BBB permeability, a parallel artificial membrane permeability assay (PAMPA)-BBB was performed, which predicts passive BBB permeability using a brain lipid porcine membrane.
The prediction of the brain penetration was evaluated using a PAMPA-BBB. […] Next, 100 μL of these stock solutions were added to a solution of 1400 μL of EtOH and 3500 μL of PBS at pH 7.4, to reach 30% of EtOH concentration in the experiment. These solutions were filtered, using Filter PDVF membrane units (diameter 30 mm, pore size 0.45 μm, from Symta). After this, the acceptor 96-well microplate (Multiscreen, catalogue no. MAMCS9610, from Millipore) was filled with 180 μL of PBS/EtOH (70/30). […] After 5 min, 180 μL of each compound solution was added. 1–2 mg of each selected compound was dissolved in 1500 μL of EtOH and 3500 μL of PBS at pH 7.4, filtered, and then added to the donor 96-well plate to determine their ability to cross the brain barrier. After this, the donor plate was carefully put on the acceptor plate to form a “sandwich” and incubated for 2.5 h at 25 °C. During this period, the compounds diffused from the donor plate through the brain lipid membrane into the acceptor plate. Afterward, the donor plate was removed. A 96-well plate UV reader (Thermoscientific, Multiskan spectrum) was used to determine the concentration of compounds and commercial drugs in the acceptor and donor wells. Every sample was analyzed at three to five wavelengths, in three wells, and in two independent runs. […] Ten quality control compounds (previously mentioned) of known BBB permeability were included in each experiment to validate the analysis set.

[2] = molecular target: eeAChE (Electrophorus electricus AChE) (Electrophorus electricus, UniProt O42275); assay: Cholinesterase inhibition assay (modified Ellman's method), eeAChE; format: biochemical; conditions: for SI eeAChE: ratio eqBChE IC50/eeAChE IC50
Excerpt: (§1) Compound series A and B were initially screened for their cholinesterase activity against eeAChE (Electrophorus electricus AChE) and eqBChE (equine serum butyrylcholinesterase), using an adaptation of the Ellman’s method. […]. […] Similarly, replacing the terminal triple bond in 7l with a nitrile group reduced its activity, while replacing the O-propargyl group with an N,N-dipropargyl group in 10 enhanced the inhibition of both enzymes, particularly BChE (Table ). The installation of an additional aryl ring in 7o further improved AChE inhibition, slightly increasing selectivity toward this enzyme. […]. […]. […]. The inhibitory activity of the synthesized compounds toward eeAChE and eqBChE was evaluated spectrophotometrically through a 96-well microplate modified Ellman’s method. The solutions of both enzymes were prepared as 0.025 U/mL in phosphate buffer at pH 7, from stock solutions of 5.05 U/mL and 7.50 U/mL, respectively. The stock solutions for the target compounds (0.1 M) were prepared in dimethyl sulfoxide (DMSO). […] The reaction mixture was prepared with 100 μL of the enzyme (eeAChE or eqBChE) and 50 μL of the test compound (or DMSO/water, not exceeding 0.2% of DMSO in the wells; i.e blank samples). After 5 min of the preincubation period at 37 °C, 50 μL of ATChI or BTChI and 50 μL of DTNB were added to each well, thus initiating the enzymatic reaction. The absorbance values were measured at 415 nm, for a total of 7.5 min, at every 2.5 min, using a microplate reader (Synergy multimode reader; BioTek). […]. All experiments were performed in triplicate.

[3] = molecular target: T1, eqBChE (equine serum butyrylcholinesterase) (Equus caballus, UniProt P81908); assay: Cholinesterase inhibition assay (modified Ellman's method), eqBChE; format: biochemical
T1 construct: eqBChE (equine serum butyrylcholinesterase); from tissue; host or cells: equine serum
Excerpt: as §1

[4] = molecular target: T2, Aβ42 aggregation (Homo sapiens, UniProt P05067); assay: Thioflavin S assay of Aβ42 aggregation in E. coli cells overexpressing Aβ42; format: cell-based, Escherichia coli; conditions: read-out: Aβ42 inhibition %
T2 construct: expressed in transfected cells; host or cells: E. coli BL21 (DE3), pET vector
Method: (§2) The antiaggregating profiles of both series A and B were evaluated using a fluorescence Thioflavin S (ThS) assay in cellulo, which monitors ThS fluorescence in the presence of β-sheet-rich structures, such as Aβ and tau protein aggregates. This method, based on recombinant Escherichia coli (E. coli) bacteria overexpressing insoluble aggregates, offers a simple and cost-effective approach to model aggregation processes in mammalian systems and has been validated for use in drug discovery studies. , Compounds were tested at a screening concentration of 50 μM for their ability to inhibit Aβ42 aggregation. The results, summarized in Table , reveal distinct antiaggregating profiles between series A and B, which are once again influenced by their structural differences.
42 Amino acid Aβ42 was cloned and overexpressed in E. coli BL21 (DE3) competent cells using the pET vector harboring the DNA sequence of Aβ42. Due to the addition of the initiation codon ATG preceding genes, the resulting overexpressed peptide contained an additional methionine residue at its N-terminus. For the preparation of overnight cultures, a colony of BL21 (DE3) cells carrying the plasmid for expression was inoculated in 10 mL of M9 minimal medium supplemented with 50 μg mL^–1 kanamycin at 37 °C. Subsequently, a 1:500 dilution of the overnight culture was added to fresh M9 minimal medium containing 50 μg mL^–1 kanamycin and 25 μM ThS. The bacterial culture was then incubated at 37 °C with agitation at 250 rpm. Upon reaching an OD600 of 0.6, 980 μL of the culture was transferred into 1.5 mL Eppendorf tubes, each containing 10 μL of the compound to be tested dissolved in DMSO and 10 μL of 100 mM isopropyl 1-thio-β-D-galactopyranoside (IPTG) or, alternatively, 10 μL of water for the noninduced controls. The final compound concentration was adjusted to […]. The samples were allowed to grow overnight at 37 °C with agitation at 1400 rpm using a Thermomixer (Eppendorf). Negative controls, representing maximum amyloid presence, utilized free DMSO.
(§3) ThS (T1892) and all other chemical reagents were purchased from Sigma (St. Louis, MO). Stock solutions of ThS (250 μM) were prepared using doubly distilled water purified via a Milli-Q system (Millipore). For the fluorescence assay, ThS spectra were recorded utilizing an AmincoBowman series 2 luminescence spectrophotometer (Aminco-Bowman AB2, SLM Aminco, Rochester, NY) within the range of 460 to 600 nm at a temperature of 25 °C. The excitation wavelength employed was 445 nm, with slit widths set at 4 nm. The emission at 485 nm, corresponding to the ThS peak observed in the presence of amyloids, was recorded. To standardize ThS fluorescence relative to bacterial concentration in both in vitro and cell-based assays, the OD600 was determined using a Shimadzu UV-2401 PC UV–vis spectrophotometer. Fluorescence normalization was executed by setting the ThS fluorescence of bacterial cells expressing the peptide or protein in the absence of the drug as 100%, while that of bacterial cells not expressing the peptide or protein was established as 0%.

[5] = molecular target: T3, Tau protein aggregation (Homo sapiens, UniProt P10636); assay: Thioflavin S assay of tau protein aggregation in E. coli cells overexpressing tau; format: cell-based, Escherichia coli; conditions: read-out: Tau inhibition %
T3 construct: For the cloning and overexpression of full-length tau protein; expressed in transfected cells; host or cells: E. coli BL21 (DE3) carrying pTARA and pRKT42
Method: as §2
This strategic extension aimed to validate the chromeno[3,4-b]-xanthone scaffold for related aggregation targets, considering the structural and pathological similarities between Aβ and tau aggregation processes. […]. […] Nevertheless, it is important to interpret the results cautiously, as the inability of certain compounds to cross bacterial membranes, may have underestimated their true inhibitory activity in the assay.
For the cloning and overexpression of full-length tau protein, E. coli BL21 (DE3) competent cells were transformed first with the pTARA vector containing the RNA polymerase gene of phage T7 (T7RP), controlled by the PBAD promoter. Subsequently, E. coli BL21(DE3) competent cells containing pTARA were transformed with the pRKT42 vector encoding four repeats of tau protein in two inserts. Similar to the procedure for Aβ42, overnight cultures were prepared by inoculating colonies of BL21 (DE3) cells bearing the plasmids in M9 medium supplemented with 0.5% glucose, 50 μg mL^–1 ampicillin, and 12.5 μg mL^–1 chloramphenicol at 37 °C. Upon induction, a 1:500 dilution of the overnight culture was added to fresh M9 minimal medium containing 0.5% glucose, 50 μg mL^–1 ampicillin, 12.5 μg mL^–1 chloramphenicol, and 25 μM ThS. The subsequent steps mirrored those for the Aβ assay, including the addition of the compound to be tested dissolved in DMSO and 10 μL of 25% arabinose or, alternatively, 10 μL of water for the noninduced controls, with a final compound concentration of […]. Negative controls for tau overexpression utilized free DMSO.
as §3

T1 sequence (P81908 whole entry): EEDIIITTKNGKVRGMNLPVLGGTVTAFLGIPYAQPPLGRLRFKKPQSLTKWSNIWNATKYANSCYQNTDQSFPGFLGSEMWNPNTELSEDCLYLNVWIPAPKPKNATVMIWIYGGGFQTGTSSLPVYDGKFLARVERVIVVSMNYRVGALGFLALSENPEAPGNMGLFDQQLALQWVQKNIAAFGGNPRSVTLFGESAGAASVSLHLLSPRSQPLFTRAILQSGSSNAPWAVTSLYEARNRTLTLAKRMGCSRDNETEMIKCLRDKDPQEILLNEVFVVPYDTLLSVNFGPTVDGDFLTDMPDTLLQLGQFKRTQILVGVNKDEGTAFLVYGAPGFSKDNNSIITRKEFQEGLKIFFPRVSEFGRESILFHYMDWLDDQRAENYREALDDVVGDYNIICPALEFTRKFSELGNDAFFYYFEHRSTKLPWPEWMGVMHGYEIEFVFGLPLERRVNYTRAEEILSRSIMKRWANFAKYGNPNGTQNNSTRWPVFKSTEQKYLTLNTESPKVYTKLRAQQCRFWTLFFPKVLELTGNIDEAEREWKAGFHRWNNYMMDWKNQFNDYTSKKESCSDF
Sequence of eeAChE (Electrophorus electricus AChE) (O42275 24-633): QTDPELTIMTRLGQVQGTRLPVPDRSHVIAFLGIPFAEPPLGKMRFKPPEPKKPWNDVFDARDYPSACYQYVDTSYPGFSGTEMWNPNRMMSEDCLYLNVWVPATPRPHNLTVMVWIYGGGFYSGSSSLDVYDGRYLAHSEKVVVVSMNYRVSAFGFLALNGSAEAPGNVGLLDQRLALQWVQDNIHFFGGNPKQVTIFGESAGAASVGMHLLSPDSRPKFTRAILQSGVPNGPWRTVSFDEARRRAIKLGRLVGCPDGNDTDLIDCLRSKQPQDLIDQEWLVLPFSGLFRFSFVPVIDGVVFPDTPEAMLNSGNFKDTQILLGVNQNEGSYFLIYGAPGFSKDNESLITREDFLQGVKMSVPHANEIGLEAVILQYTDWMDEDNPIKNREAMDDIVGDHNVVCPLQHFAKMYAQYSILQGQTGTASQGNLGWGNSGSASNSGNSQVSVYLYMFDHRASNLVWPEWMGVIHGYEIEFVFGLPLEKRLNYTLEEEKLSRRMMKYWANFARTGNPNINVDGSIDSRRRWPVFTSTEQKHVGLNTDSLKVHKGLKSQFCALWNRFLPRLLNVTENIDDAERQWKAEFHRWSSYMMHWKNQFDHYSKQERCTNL
T3 sequence (P10636 other isoform, or with tags, fused parts or gaps): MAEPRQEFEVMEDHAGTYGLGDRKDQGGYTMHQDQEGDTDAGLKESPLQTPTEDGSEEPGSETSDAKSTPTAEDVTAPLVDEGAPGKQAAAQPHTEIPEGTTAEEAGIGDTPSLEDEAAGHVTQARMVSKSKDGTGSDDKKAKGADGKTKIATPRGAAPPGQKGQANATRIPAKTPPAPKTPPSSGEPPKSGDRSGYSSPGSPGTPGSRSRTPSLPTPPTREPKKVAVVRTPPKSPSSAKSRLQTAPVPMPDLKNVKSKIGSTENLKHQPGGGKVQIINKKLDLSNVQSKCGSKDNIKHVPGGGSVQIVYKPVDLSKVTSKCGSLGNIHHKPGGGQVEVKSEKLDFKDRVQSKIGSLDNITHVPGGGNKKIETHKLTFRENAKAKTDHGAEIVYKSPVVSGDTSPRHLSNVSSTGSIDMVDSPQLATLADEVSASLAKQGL
T2 sequence (P05067 672-713): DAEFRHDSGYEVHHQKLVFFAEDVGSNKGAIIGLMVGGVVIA

| SMILES | Papp at 2.5 h ([1]; pig) [×10⁻⁶ cm/s] | IC50 [2] [µM] | SI eeAChE [2] | IC50 [3] [µM] | inhibition at 50 µM [4] [%] | inhibition at 50 µM [5] [%] | Prediction (penetration into the CNS) [1] | Papp at 2.5 h [1] [×10⁻⁶ cm/s] |
| --- | --- | --- | --- | --- | --- | --- | --- | --- |
| CN1C(C(=O)Nc2ccccn2)=C(O)c2ccccc2S1(=O)=O [Piroxicam, reference compound] | 0.19 ± 0.02 | – | – | – | – | – | – | – |
| COc1ccc2c(c1)-c1cc3oc4cc(OC)ccc4c(=O)c3cc1CO2 [Compound 11l, 2,11-Dimethoxy-6H,8H-chromeno[3,4-b]xanthen-8-one] | – | 4.8 ± 0.5 | 1.88 | 9 ± 0.5 | 40 ± 5.1 | – | – | – |
| COc1ccc2c(c1)-c1cc3oc4ccccc4c(=O)c3cc1CO2 [Compound 11f, 2-Methoxy-6H,8H-chromeno[3,4-b]xanthen-8-one] | – | 6.9 ± 1.5 | 0.88 | 6.1 ± 0.5 | 36 ± 7.8 | – | – | – |
| O=c1c2ccccc2oc2cc3c(cc12)COc1ccc(F)cc1-3 [Compound 11i, 2-Fluoro-6H,8H-chromeno[3,4-b]xanthen-8-one] | – | – | – | – | 47 ± 8.4 | 52 ± 6.3 | – | – |
| COc1ccc2c(=O)c3cc4c(cc3oc2c1OC)-c1ccccc1OC4 [Compound 11d, 11,12-Dimethoxy-6H,8H-chromeno[3,4-b]xanthen-8-one] | – | – | – | 7.1 ± 0.1 | 40 ± 6.4 | – | – | – |
| O=c1c2ccccc2oc2cc3c(cc12)COc1c(Br)cc(Cl)cc1-3 [Compound 11k, 4-Bromo-2-chloro-6H,8H-chromeno[3,4-b]xanthen-8-one] | 2.3 ± 1.11 | 4.2 ± 0.9 | 1.48 | 6.2 ± 1 | 46 ± 3.7 | 52 ± 7.2 | CNS± (Uncertain BBB permeation (CNS±) 3.93 > P e > 1.82) | – |
| O=c1c2ccccc2oc2cc3c(cc12)COc1ccc(OC(F)(F)F)cc1-3 [Compound 11h, 2-(Trifluoromethoxy)-6H,8H-chromeno[3,4-b]xanthen-8-one] | – | 4 ± 1.2 | 1.55 | 6.2 ± 0.7 | 41 ± 6.4 | – | – | – |
| CNCCCN1c2ccccc2CCc2ccccc21 [Desipramine, reference compound] | 15.6 ± 1.78 | – | – | – | – | – | – | – |
| CCn1cc(C(=O)O)c(=O)c2cc(F)c(N3CCNCC3)nc21 [Enoxacin, reference compound] | 0.15 ± 0.15 | – | – | – | – | – | – | – |
| COc1ccc2c(c1)-c1cc3oc4cccc(OC)c4c(=O)c3cc1CO2 [Compound 11m, 2,9-Dimethoxy-6H,8H-chromeno[3,4-b]xanthen-8-one] | – | – | – | 7.3 ± 0.4 | 30 ± 6.6 | – | – | – |
| COc1cc(OC)c2c(=O)c3cc4c(cc3oc2c1)-c1ccccc1OC4 [Compound 11e, 9,11-Dimethoxy-6H,8H-chromeno[3,4-b]xanthen-8-one] | – | – | – | 9.4 ± 0.2 | 36 ± 4.4 | – | – | – |
| CN(C)CCCN1c2ccccc2Sc2ccccc21 [Promazine, reference compound] | – | – | – | – | – | – | – | 15.4 ± 0.91 |
| COc1ccc2c(=O)c3cc4c(cc3oc2c1)-c1cc(F)ccc1OC4 [Compound 11q, 2-Fluoro-11-methoxy-6H,8H-chromeno[3,4-b]xanthen-8-one] | 6.04 ± 1.99 | 4.3 ± 1.5 | – | – | 50 ± 6.7 | 55 ± 5.9 | CNS+ (High BBB permeation predicted (CNS+) P e > 3.93) | – |
| COc1ccc2c(=O)c3cc4c(cc3oc2c1)-c1c(ccc2ccccc12)OC4 [Compound 12b] | – | – | – | – | 54 ± 6.2 | 57 ± 7 | – | – |
| COc1ccc2c(=O)c3cc4c(cc3oc2c1)-c1cc(Cl)cc(Br)c1OC4 [Compound 11s, 4-Bromo-2-chloro-11-methoxy-6H,8H-chromeno[3,4-b]xanthen-8-one] | 8.7 ± 0.61 | 1.7 ± 1.2 | 4.12 | 7 ± 0.4 | 46 ± 6.3 | 58 ± 7.1 | CNS+ (High BBB permeation predicted (CNS+) P e > 3.93) | – |
